Some test systems named below: IGROV1 ovarian; HCT-15 colon; SF-295 CNS; RPMI-8226 leukemia; A498 renal; SK-MEL-2 melanoma; HS 578T breast; MDA-MB-231 breast.
Test in all cases: DTP human tumour cell line panel, 48 h

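Step 1: Grow cells in 96-well plates. Step 2: Expose to compound for 48 hours at 5 concentrations. Step 3: Interpolate endpoints linearly; if unreached, use highest concentration. Abbreviation: GI50, concentration required for 50% inhibition of growth. The concentration for full growth arrest is given as TGI.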

`COc1ccc(-c2cc(-c3cc(OC)c(OC)c(OC)c3)c(C#N)c(N3CCOCC3)n2)cc1O`: the GI50 (usually the concentration that inhibits growth by half) with IGROV1 ovarian is 19 µM; with HCT-15 colon it was 1.89 µM; with SF-295 CNS, 6.38 µM; in the experiment with RPMI-8226 leukemia, 0.514 µM; in the experiment with A498 renal, more than 21.4 µM; in the experiment with SK-MEL-2 melanoma, 13.5 µM. Moreover, the GI50 in the experiment on HS 578T breast was 2.45 µM; in the experiment on MDA-MB-231 breast, 2.41 µM. For the same compound, the TGI (as a rule, the concentration at which net growth stops) in the experiment with IGROV1 ovarian was more than 100 µM; in the experiment with HCT-15 colon, more than 60.3 µM; in the experiment with SF-295 CNS, more than 73.8 µM; in the experiment on RPMI-8226 leukemia, 3.6 µM; with A498 renal it was more than 77.9 µM; in the experiment with SK-MEL-2 melanoma, more than 100 µM. Besides, the TGI is more than 28.3 µM in the experiment with HS 578T breast and more than 93.3 µM with MDA-MB-231 breast.

With `O=C1C2c3[nH]c4ccccc4c3[C@@H]3CCCCC3C2C(=O)N1c1ccccc1` (stereo not given in full), the TGI in the experiment on IGROV1 ovarian is 74.8 µM; in the experiment on HCT-15 colon it was more than 100 µM; in the experiment on SF-295 CNS, 43.2 µM; in the experiment on RPMI-8226 leukemia it was 47.7 µM; with A498 renal, 71.9 µM.

Consider `O=C1C(Cl)=C(Nc2cccc(O)c2)C(=O)N1c1ccccc1Cl`, for which the GI50 in the experiment on HCT-15 colon was 35.2 µM; in the experiment on SF-295 CNS it was 40 µM; with RPMI-8226 leukemia, 10.4 µM; with SK-MEL-2 melanoma, 25.5 µM; in the experiment with HS 578T breast, 21 µM; with MDA-MB-231 breast it was 5.68 µM. Also, the TGI with HCT-15 colon is more than 100 µM; in the experiment on SF-295 CNS, more than 100 µM; in the experiment on RPMI-8226 leukemia, 35.1 µM; with SK-MEL-2 melanoma, 61.6 µM; with HS 578T breast, 77.7 µM; in the experiment with MDA-MB-231 breast, 42.4 µM.

Consider `Cc1cc(C)c(S(=O)(=O)ONC(=O)OC(C)(C)C)c(C)c1`, for which the TGI in the experiment on IGROV1 ovarian, in the experiment on HCT-15 colon, in the experiment on SF-295 CNS, with RPMI-8226 leukemia, in the experiment with A498 renal and with SK-MEL-2 melanoma was more than 100 µM in each case.

Consider `CNCCCNc1nc2ccccc2c2c(=O)c3cc(Cl)ccc3sc12`, for which the GI50 with IGROV1 ovarian is 1.51 µM; in the experiment on HCT-15 colon it was 1.5 µM; in the experiment with SF-295 CNS, 1.74 µM; in the experiment with A498 renal, 2.55 µM; in the experiment on SK-MEL-2 melanoma it was 1.75 µM; with HS 578T breast, 1.72 µM. In addition, in the experiment with MDA-MB-231 breast, the GI50 was 1.33 µM. Also, the TGI in the experiment on IGROV1 ovarian amounted to 3.18 µM; in the experiment with HCT-15 colon, 2.92 µM; with SF-295 CNS, 3.27 µM; in the experiment on A498 renal, 7.41 µM; in the experiment on SK-MEL-2 melanoma, 3.43 µM; in the experiment on HS 578T breast, 4.31 µM. The compound also returned a TGI with MDA-MB-231 breast of 2.67 µM.

For `C/C(Cc1ccc(Cl)cc1)=C(/c1ccc(Cl)cc1)c1ccc(OCCN(C)C)cc1`, the GI50 was 3.73 µM with IGROV1 ovarian; 1.19 µM in the experiment on HCT-15 colon; 5.5 µM with SF-295 CNS; 1.07 µM in the experiment with RPMI-8226 leukemia; 5.69 µM in the experiment with SK-MEL-2 melanoma; 4.72 µM with HS 578T breast. The GI50 in the experiment on MDA-MB-231 breast is 4.27 µM. In addition, the TGI stood at 8.56 µM in the experiment on IGROV1 ovarian; 4.27 µM in the experiment on HCT-15 colon; 10.3 µM in the experiment on SF-295 CNS; 3.81 µM with RPMI-8226 leukemia; 11.4 µM in the experiment on SK-MEL-2 melanoma; 11 µM with HS 578T breast. In the experiment with MDA-MB-231 breast, the TGI is 8.71 µM.

For the compound `CC(=O)OCC1O[C@@H]([S-])C(OC(C)=O)[C@H](OC(C)=O)[C@@H]1OC(C)=O.[Au+].c1ccc(CN2[CH-]N(Cc3ccccc3)C(c3ccccc3)=C2c2ccccc2)cc1`, the GI50 was 1.47 µM with HCT-15 colon; 2.34 µM with SF-295 CNS; 1.9 µM with RPMI-8226 leukemia; 2.06 µM in the experiment on A498 renal; 1.74 µM with SK-MEL-2 melanoma; 2.51 µM in the experiment on HS 578T breast. Also, the TGI in the experiment with HCT-15 colon amounted to 2.94 µM; in the experiment on SF-295 CNS, 6.31 µM; in the experiment with RPMI-8226 leukemia it was 4.94 µM; with A498 renal it was 4.02 µM; in the experiment with SK-MEL-2 melanoma, 3.43 µM; with HS 578T breast, 6.91 µM.

Take `Nc1c(C(=O)Nc2ccccc2F)sc2nc3c(cc12)C(=O)CCC3`: the GI50 in the experiment with IGROV1 ovarian was 2.92 µM; in the experiment on HCT-15 colon, 0.642 µM; in the experiment with SF-295 CNS it was 0.611 µM; in the experiment with A498 renal it was 0.47 µM; with SK-MEL-2 melanoma it was 0.683 µM; in the experiment with HS 578T breast, 2.01 µM. For the same compound, the GI50 in the experiment on MDA-MB-231 breast is 7.53 µM. The TGI in the experiment with IGROV1 ovarian was more than 100 µM; in the experiment on HCT-15 colon, more than 100 µM; with SF-295 CNS it was more than 92.6 µM; in the experiment with A498 renal it was more than 24 µM; with SK-MEL-2 melanoma, more than 100 µM; in the experiment with HS 578T breast it was more than 25.5 µM. Moreover, the TGI in the experiment with MDA-MB-231 breast was more than 100 µM.

Consider `O=[N+]([O-])c1ccc2ncccc2c1Cl`, for which the GI50 was 3.89 µM in the experiment with IGROV1 ovarian; 3.43 µM in the experiment on HCT-15 colon; 0.435 µM in the experiment on RPMI-8226 leukemia; 10.8 µM with A498 renal; 9.21 µM in the experiment on SK-MEL-2 melanoma; 7.69 µM with HS 578T breast. For the same compound, the GI50 in the experiment with MDA-MB-231 breast is 3.46 µM. Further, the TGI in the experiment with IGROV1 ovarian was 13.8 µM; in the experiment on HCT-15 colon it was 14.4 µM; in the experiment on RPMI-8226 leukemia it was 6.57 µM; in the experiment on A498 renal, 31.3 µM; in the experiment on SK-MEL-2 melanoma, 30.5 µM; in the experiment with HS 578T breast, more than 100 µM. In the experiment with MDA-MB-231 breast, this compound displayed a TGI of 11.9 µM.

Take `CCCSC1=NC2C(N(CC)C(=O)N2CC)N1/N=C/C=C/c1ccccc1[N+](=O)[O-]` (stereo not given): the GI50 was 4.06 µM in the experiment on IGROV1 ovarian; 2.94 µM with HCT-15 colon; 2.74 µM in the experiment with SF-295 CNS; 1.59 µM in the experiment with A498 renal; 7.26 µM in the experiment on SK-MEL-2 melanoma; 2.39 µM in the experiment with HS 578T breast. In addition, in the experiment on MDA-MB-231 breast, the GI50 was 2.35 µM. The TGI was more than 100 µM in the experiment with IGROV1 ovarian; more than 100 µM with HCT-15 colon; more than 100 µM in the experiment with SF-295 CNS; 6.35 µM in the experiment on A498 renal; more than 100 µM in the experiment on SK-MEL-2 melanoma; more than 100 µM in the experiment on HS 578T breast. In the experiment on MDA-MB-231 breast, this compound came in with a TGI of 7.44 µM.

Turning to `CCCCC#CC#Cc1cccc(=O)o1`, the GI50 with IGROV1 ovarian was 30.7 µM; in the experiment on HCT-15 colon it was 20.2 µM; in the experiment on SF-295 CNS, 18.8 µM; in the experiment on RPMI-8226 leukemia, 10.5 µM; with SK-MEL-2 melanoma it was 38.6 µM; in the experiment on HS 578T breast, 25.9 µM. For the same compound, the GI50 in the experiment with MDA-MB-231 breast is 19.5 µM. For the same compound, the TGI in the experiment on IGROV1 ovarian turned out to be 75.8 µM; in the experiment on HCT-15 colon, 39.5 µM; in the experiment on SF-295 CNS, 40 µM; with RPMI-8226 leukemia it was 90.8 µM; in the experiment with SK-MEL-2 melanoma, 69.3 µM; with HS 578T breast it was 51.6 µM. The TGI in the experiment on MDA-MB-231 breast worked out at 43.2 µM.

(Values after PubChem BioAssay (NCI).)
